Where two headings read alike, the source gives them in different places.
Tests used:
human IGF-IR mRNA = experiment: Antisense inhibition of human IGF-IR mRNA levels by quantitative RT-PCR (Table 1); assay type: cell-based; parameters: %INHIB (human IGF-IR mRNA levels): concentration or dose not given beside the values; conditions: for inhibition of IGF-IR expression (lead compounds): as shown in Table 1; for %INHIB (human IGF-IR mRNA levels): quantitative RT-PCR, averages from 3 experiments
Ptx-R PC3 cells = experiment: Growth of Paclitaxel resistant Ptx-R PC3 cells with chemotherapeutic agents; assay type: cell-based, human; conditions: read-out: IC50 (cell growth)
Text: (§1) PC3 cells cultured in vitro were selected for resistance to Paclitaxel (Ptx-R).

PC3 cells [1] = experiment: Growth of PC3 cells with chemotherapeutic agents; assay type: cell-based, human; conditions: read-out: IC50 (cell growth)
Text: as §1

PC3 cells [2] = experiment: PC3 viable cells and apoptosis after transfection plus Paclitaxel; conditions: Homo sapiens, PC-3, 72 h, read-out: reduction of viable cell count
Experimental: PC3 cells cultured in vitro were transfected at concentrations of IGF-IR antisense oligonucleotide (ATL1101) or control oligodeoxynucleotide (ISIS 306064) ranging from 12.5 nM to 50 nM or oligofectamine control once per day on two sequential days. After the 2nd transfection, the PC3 cells were treated with concentrations of between 0.1 to 50 nM Paclitaxel. The number of viable cells remaining were determined 72 hours after Paclitaxel treatment.

[3] = Homo sapiens, PC-3, standard culture conditions

Molecule: 323762 (antisense GCCTTGTGTCCTGAGTGTCT; listed as DNA, chemistry not fully specified) [compound 323762]
- inhibition of IGF-IR expression (lead compounds) (human IGF-IR mRNA): demonstrated inhibition
- %INHIB (human IGF-IR mRNA levels) (human IGF-IR mRNA): 84%

Molecule: 323763 (antisense ATCCAAGGATCAGCAGGTCG; listed as DNA, chemistry not fully specified) [compound 323763]
- %INHIB (human IGF-IR mRNA levels) (human IGF-IR mRNA): 69%

Molecule: 323764 (antisense GCTGCTTGCATATTGAAAAA; listed as DNA, chemistry not fully specified) [compound 323764]
- %INHIB (human IGF-IR mRNA levels) (human IGF-IR mRNA): 77%

Molecule: 323765 (antisense AAAAAGCTGCTTGCATATTG; listed as DNA, chemistry not fully specified) [compound 323765]
- %INHIB (human IGF-IR mRNA levels) (human IGF-IR mRNA): 74%

Molecule: 323766 (antisense GCCCATGTCAGTTAAGGGTT; listed as DNA, chemistry not fully specified) [compound 323766]
- %INHIB (human IGF-IR mRNA levels) (human IGF-IR mRNA): 69%

Molecule: 323767 (antisense CCAGCGTGTCTCTCAAATGG; listed as DNA, chemistry not fully specified) [compound 323767]
- inhibition of IGF-IR expression (lead compounds) (human IGF-IR mRNA): demonstrated inhibition
- %INHIB (human IGF-IR mRNA levels) (human IGF-IR mRNA): 84%

Molecule: 323768 (antisense GGAGTTTAAAGGACAGTGCC; listed as DNA, chemistry not fully specified) [compound 323768]
- %INHIB (human IGF-IR mRNA levels) (human IGF-IR mRNA): 59%

Molecule: 323769 (antisense CATCACTGACCTCTTTCTAT; listed as DNA, chemistry not fully specified) [compound 323769]
- %INHIB (human IGF-IR mRNA levels) (human IGF-IR mRNA): 0%

Molecule: N.N.[Cl][Pt][Cl] [Cisplatin]
- IC50 (Ptx-R PC3 cells; standard culture conditions): 24.7 nM
- IC50 (PC3 cells [1]; standard culture conditions): 10 nM

Molecule: CC(=O)O[C@@]12CO[C@@H]1C[C@H](O)[C@@]1(C)C(=O)[C@H](O)C3=C(C)[C@@H](OC(=O)[C@H](O)[C@@H](NC(=O)OC(C)(C)C)c4ccccc4)C[C@@](O)([C@@H](OC(=O)c4ccccc4)[C@H]21)C3(C)C [Docataxel]
- IC50 (Ptx-R PC3 cells; [3]): 10 nM
- IC50 (PC3 cells [1]; [3]): 0.827 nM

Molecule: O=C1c2c(O)ccc(O)c2C(=O)c2c(NCCNCCO)ccc(NCCNCCO)c21 [Mitoxantrone]
- IC50 (Ptx-R PC3 cells; [3]): 376 nM
- IC50 (PC3 cells [1]; [3]): 8.8 nM

Molecule: CC(=O)O[C@H]1C(=O)[C@@]2(C)[C@H]([C@H](OC(=O)c3ccccc3)[C@]3(O)C[C@H](OC(=O)[C@H](O)[C@@H](NC(=O)c4ccccc4)c4ccccc4)C(C)=C1C3(C)C)[C@]1(OC(C)=O)CO[C@@H]1C[C@@H]2O [Paclitaxel]
- cytotoxicity at 0.0001 µM (PC3 cells [2]): ~5%
- IC50 (Ptx-R PC3 cells; [3]): 50.3 nM
- IC50 (PC3 cells [1]; [3]): 2.56 nM
